From US11840686B2, “Modulation of prekallikrein (PKK) expression” (Ionis Pharmaceuticals, Inc., priority 2013, dated 2023)
Strand notation (5' to 3'): a small letter for the sugar, then the base; units joined by * are phosphorothioate-linked, units joined directly phosphodiester-linked; [ ] holds rarer units or linkages, { } end groups; capitals alone tell only the bases. e = 2'-O-(2-methoxyethyl) (MOE); [5mC] = 5-methylcytosine; d = 2'-deoxy (DNA)

How the values were obtained:
Assay type in all cases: in vivo, mouse
vascular leakage = experiment: Vascular leakage, plasma Evans Blue OD620, captopril model (Example 13); conditions: for Percentage of OD620 nm of Evans Blue dye compared to the PBS basal control, Plasma: captopril Yes
Protocol: Groups 4, 5, 6, 7, 8, and 9 consisted of 8 mice each and were treated with 2.5 mg/kg, 5 mg/kg, 10 mg/kg, 20 mg/kg, 40 mg/kg, or 80 mg/kg (corresponding to 5 mg/kg, 10 mg/kg, 20 mg/kg, 40 mg/kg, 80 mg/kg, or 160 mg/kg per week), respectively of ISIS 482584 administered subcutaneously twice a week for 3 weeks. At the end of the treatment period, the mice of all the groups were intraperitoneally administered 20 μg of captopril. Groups 4-9 served as the experimental treatment groups for examining the effect of varying doses of ISIS 482584 on captopril-induced vascular permeability.
All the groups were then injected with 30 mg/kg of Evans Blue solution in the tail vein. The mice were sacrificed 30 min after the Evans Blue solution administration and colons, feet, ears, and intestines were harvested. Blood samples were taken through cardiac puncture.
The blood drawn through cardiac puncture was immediately mixed with 3 times the volume of ice-cold ethanol. The solution was centrifuged at 15,000 g for 20 minutes at 4° C. to remove cell debris and precipitated plasma proteins. The ethanol extracts were further purified by ultra-filtration through a 10 kDa MWCO filter. The color intensity of the ethanol extracted plasma solution was then measured at OD620 nm. The results are presented in Table 67 as percentage increase or decrease of the OD values of the Group 1 PBS control.

[1] = test system: basal and captopril-induced vascular permeability; experiment: Evans Blue basal and captopril-induced vascular permeability in mice (Example 12); conditions: for OD600 nm of Evans Blue dye, Colon / OD600 nm of Evans Blue dye, Ears / OD600 nm of Evans Blue dye, Feet / OD600 nm of Evans Blue dye, Intestine: ISIS 482584 40 mg/kg sc twice a week 4 weeks, HOE-140 30 μg ip
Protocol: Basal permeability is the level of vascular permeability occurring in the tissues of naïve, untreated mice. The effect of ISIS 482584 in the prevention of vascular permeability, either basal or captopril-induced, was evaluated.
Group 1 consisted of 8 mice and was treated with PBS administered subcutaneously twice a week for 4 weeks. No other treatment was administered to Group 1 which served as a control group to measure the basal levels of vascular permeability.
Group 2 consisted of 8 mice and was treated with PBS administered subcutaneously twice a week for 4 weeks. At the end of the treatment period, the mice were intraperitoneally administered 20 μg of captopril. Group 2 served as the negative control group for captopril-induced vascular permeability.
Group 3 consisted of 8 mice and was treated with PBS administered subcutaneously twice a week for 4 weeks. At the end of the treatment period, the mice were intraperitoneally administered 30 μg of HOE-140. Group 3 served as a positive control for inhibition of basal vascular permeability.
Group 4 consisted of 8 mice and was treated with PBS administered subcutaneously twice a week for 4 weeks. At the end of the treatment period, the mice were intraperitoneally administered 20 μg of captopril. The mice were also intraperitoneally administered 30 μg of HOE-140. Group 4 served as a positive control for inhibition of captopril-induced vascular permeability.
(§1) Group 5 consisted of 8 mice and was treated with 40 mg/kg of ISIS 482584 administered subcutaneously twice a week for 4 weeks. Group 5 served as an experimental treatment group for examining the effect of ISIS 482584 on basal vascular permeability.
as §1, with “Group 6” for “Group 5”, “weeks. At the end of the treatment period, the mice were intraperitoneally administered 20 μg of captopril.” for “weeks.”, “on captopril-induced” for “on basal”
All the groups were then injected with 30 mg/kg of Evans Blue solution. The mice were sacrificed 30 min after the Evans Blue solution administration and colons, feet, ears, and intestines were harvested.
The harvested tissues from the feet, colon, intestine, and ears were placed separately in formamide solution overnight to leach out the Evans Blue dye. The formamide solution containing feet and ear tissue was heated to 55° C. and left overnight.

thrombus formation = experiment: FeCl3 induced mesenteric thrombosis model, platelet aggregation and fibrin formation (Example 21); conditions: Swiss-Webster mice; for Fibrin formation, fluorescent intensity / Platelet aggregation, fluorescent intensity: 80 mg/kg/wk
Protocol: ISIS 482584 was evaluated in the FeCl3 induced mesenteric thrombosis mouse model.
A group of 6-8 Swiss-Webster mice was treated with 40 mg/kg of ISIS 482584, administered subcutaneously twice a week for 3 weeks (weekly dose of 80 mg/kg). A control group of 6 Swiss-Webster mice was treated with PBS, administered subcutaneously twice a week for 3 weeks. Two days after the last dose of antisense oligonucleotide or PBS, mice from all groups were anesthetized with 75 mg/kg ketamine mixed with 25 mg/kg xylazine, administered by subcutaneous injection.
Rhodamine 6G dye at a dosage of 5 mg/kg was injected subcutaneously to stain platelets. Alexa-647-labeled anti-fibrinogen antibody at a dosage of 1 mg/kg was injected via tail vein injection to stain fibrin. The abdomen was opened by a middle incision. The visceral mesentery was spread on a glass coverslip and the mesenteric arterioles (70-120 μm) were located by observation under a microscope. Thrombus formation was induced by applying of cotton threads (2×0.3 mm) pre-saturated with 6% FeCl3 solution directly on the target vessel. After three minutes of exposure, the thread was removed and the color intensities of both the dyes were recorded by fluorescent microscopy (Olympus FluoView 1000 confocal laser scanning microscope) with appropriate filters for 70 min.
The results for platelet aggregation in the control and treatment groups are presented in Table 83, expressed in arbitrary units (a.u.). […] The results for fibrin formation in the control and treatment groups are presented in Table 84, also expressed in arbitrary units (a.u.).

## NC(N)=NCCC[C@@H](N)C(=O)N[C@@H](CCCN=C(N)N)C(=O)N1CCC[C@H]1C(=O)N1C[C@H](O)C[C@H]1C(=O)NCC(=O)N[C@@H](Cc1cccs1)C(=O)N[C@@H](CO)C(=O)N1Cc2ccccc2C[C@@H]1C(=O)N1[C@H](C(=O)N[C@@H](CCCN=C(N)N)C(=O)O)C[C@@H]2CCCC[C@@H]21 [HOE-140, Icatibant, reference compound]
Vascular leakage; HOE-140 30 μg ip
  Percentage of OD620 nm of Evans Blue dye compared to the PBS basal control, Plasma: 5%
[1]; basal (captopril No)
  OD600 nm of Evans Blue dye, Colon: 0.18
  OD600 nm of Evans Blue dye, Ears: 0.03
  OD600 nm of Evans Blue dye, Feet: 0.06
  OD600 nm of Evans Blue dye, Intestine: 0.21
[1]; captopril Yes
  OD600 nm of Evans Blue dye, Colon: 0.29
  OD600 nm of Evans Blue dye, Ears: 0.00
  OD600 nm of Evans Blue dye, Feet: 0.03
  OD600 nm of Evans Blue dye, Intestine: 0.14

## ISIS 482584: 5-10-5 MOE gapmer targeting murine PKK, GGCATATTGGTTTTTGGAAT; SEQ ID NO: 2244 (antisense eG*eG*e[5mC]*eA*eT*dA*dT*dT*dG*dG*dT*dT*dT*dT*dT*eG*eG*eA*eA*eT)
Thrombus formation; time 752 sec
  Fibrin formation, fluorescent intensity: 54 a.u.
  Platelet aggregation, fluorescent intensity: 74 a.u.
Thrombus formation; time 1018 sec
  Fibrin formation, fluorescent intensity: 7 a.u.
  Platelet aggregation, fluorescent intensity: 11 a.u.
Thrombus formation; time 1284 sec
  Fibrin formation, fluorescent intensity: 1 a.u.
  Platelet aggregation, fluorescent intensity: 7 a.u.
Thrombus formation; time 1550 sec
  Fibrin formation, fluorescent intensity: 10 a.u.
  Platelet aggregation, fluorescent intensity: 0 a.u.
Thrombus formation; time 1815 sec
  Fibrin formation, fluorescent intensity: 16 a.u.
  Platelet aggregation, fluorescent intensity: 0 a.u.
Thrombus formation; time 2081 sec
  Fibrin formation, fluorescent intensity: 15 a.u.
  Platelet aggregation, fluorescent intensity: 0 a.u.
Thrombus formation; time 2347 sec
  Fibrin formation, fluorescent intensity: 61 a.u.
  Platelet aggregation, fluorescent intensity: 0 a.u.
Thrombus formation; time 2613 sec
  Fibrin formation, fluorescent intensity: 88 a.u.
  Platelet aggregation, fluorescent intensity: 38 a.u.
Thrombus formation; time 2879 sec
  Fibrin formation, fluorescent intensity: 141 a.u.
  Platelet aggregation, fluorescent intensity: 148 a.u.
Thrombus formation; time 3144 sec
  Fibrin formation, fluorescent intensity: 150 a.u.
  Platelet aggregation, fluorescent intensity: 129 a.u.
Thrombus formation; time 3410 sec
  Fibrin formation, fluorescent intensity: 173 a.u.
  Platelet aggregation, fluorescent intensity: 169 a.u.
Thrombus formation; time 3676 sec
  Fibrin formation, fluorescent intensity: 160 a.u.
  Platelet aggregation, fluorescent intensity: 131 a.u.
Thrombus formation; time 3944 sec
  Fibrin formation, fluorescent intensity: 128 a.u.
  Platelet aggregation, fluorescent intensity: 87 a.u.
Thrombus formation; 80 mg/kg/week, vs PBS
  fibrin formation: Fibrin formation was reduced
  platelet aggregation: Platelet aggregation was reduced
Vascular leakage; 160 mg/kg/week and 80 mg/kg/week, vs PBS negative control treated with captopril
  vascular leakage: less vascular leakage
Vascular leakage; dose 5 mg/kg
  Percentage of OD620 nm of Evans Blue dye compared to the PBS basal control, Plasma: −23%
Vascular leakage; dose 10 mg/kg
  Percentage of OD620 nm of Evans Blue dye compared to the PBS basal control, Plasma: −20%
Vascular leakage; dose 20 mg/kg
  Percentage of OD620 nm of Evans Blue dye compared to the PBS basal control, Plasma: −26%
Vascular leakage; dose 40 mg/kg
  Percentage of OD620 nm of Evans Blue dye compared to the PBS basal control, Plasma: −31%
Vascular leakage; dose 80 mg/kg
  Percentage of OD620 nm of Evans Blue dye compared to the PBS basal control, Plasma: 40%
Vascular leakage; dose 160 mg/kg
  Percentage of OD620 nm of Evans Blue dye compared to the PBS basal control, Plasma: 91%
[1]; 40 mg/kg s.c. twice a week for 4 weeks, Group 5 vs. Group 1
  basal vascular permeability: reduced basal vascular permeability
[1]; 40 mg/kg s.c. twice a week for 4 weeks, Group 6 vs. Group 2
  captopril-induced vascular permeability: reduced captopril-induced vascular permeability in most tissues
[1]; basal (captopril No)
  OD600 nm of Evans Blue dye, Colon: 0.19
  OD600 nm of Evans Blue dye, Ears: 0.04
  OD600 nm of Evans Blue dye, Feet: 0.07
  OD600 nm of Evans Blue dye, Intestine: 0.22
[1]; captopril Yes
  OD600 nm of Evans Blue dye, Colon: 0.37
  OD600 nm of Evans Blue dye, Ears: 0.00
  OD600 nm of Evans Blue dye, Feet: 0.05
  OD600 nm of Evans Blue dye, Intestine: 0.22
